Several values for one entry are separate records, joined by “and”; a condition that tells them apart may be missing. Identical values can stand only once. Values belong to the compound of their own block, whether it stands above or below them.
Biological target: T1, HDAC6 (Homo sapiens, UniProt Q9UBN7)
T1 sequence (Q9UBN7 1-1215): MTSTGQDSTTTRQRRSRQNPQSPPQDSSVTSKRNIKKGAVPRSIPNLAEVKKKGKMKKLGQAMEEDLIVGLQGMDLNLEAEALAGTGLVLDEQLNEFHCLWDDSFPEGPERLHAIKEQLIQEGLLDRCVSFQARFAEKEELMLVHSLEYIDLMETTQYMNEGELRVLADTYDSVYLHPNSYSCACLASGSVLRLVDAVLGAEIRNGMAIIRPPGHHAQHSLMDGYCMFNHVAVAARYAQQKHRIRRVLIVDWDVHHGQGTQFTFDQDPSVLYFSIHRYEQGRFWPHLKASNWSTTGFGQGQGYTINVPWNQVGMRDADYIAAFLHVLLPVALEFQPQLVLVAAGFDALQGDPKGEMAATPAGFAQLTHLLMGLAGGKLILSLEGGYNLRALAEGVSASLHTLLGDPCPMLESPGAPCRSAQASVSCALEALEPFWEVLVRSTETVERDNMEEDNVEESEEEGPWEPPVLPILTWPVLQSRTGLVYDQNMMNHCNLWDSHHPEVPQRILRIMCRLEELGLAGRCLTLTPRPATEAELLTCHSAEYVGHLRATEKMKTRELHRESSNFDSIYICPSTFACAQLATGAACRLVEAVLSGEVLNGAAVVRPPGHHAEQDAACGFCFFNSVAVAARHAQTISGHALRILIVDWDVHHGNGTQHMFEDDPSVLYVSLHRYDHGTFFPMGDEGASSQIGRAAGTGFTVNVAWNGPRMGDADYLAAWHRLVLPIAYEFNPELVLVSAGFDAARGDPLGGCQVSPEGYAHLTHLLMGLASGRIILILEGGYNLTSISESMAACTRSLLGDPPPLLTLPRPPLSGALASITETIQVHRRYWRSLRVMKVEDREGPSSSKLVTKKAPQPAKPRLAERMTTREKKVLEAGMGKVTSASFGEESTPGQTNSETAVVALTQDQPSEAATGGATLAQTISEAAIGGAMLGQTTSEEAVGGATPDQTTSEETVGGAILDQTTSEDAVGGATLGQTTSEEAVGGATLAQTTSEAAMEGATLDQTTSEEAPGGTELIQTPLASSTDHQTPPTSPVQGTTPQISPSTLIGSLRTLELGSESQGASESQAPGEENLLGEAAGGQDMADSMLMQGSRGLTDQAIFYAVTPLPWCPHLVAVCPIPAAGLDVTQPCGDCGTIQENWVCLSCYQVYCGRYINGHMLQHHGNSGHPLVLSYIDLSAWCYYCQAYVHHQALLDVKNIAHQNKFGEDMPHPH
Assay: HDAC-Glo assay
Format: biochemical
Parameters: purchased BPS Bioscience 50006
Conditions: for EC50: read-out: log EC50 from dose-dependent HDAC inhibition curves (converted)
Description: To validate the inhibition of HDACs by LA and LM and elaborate on the structure-activity relationship (SAR) of enantiomers as well as oxidized versus reduced forms of the molecules, we performed enzyme activity assays for recombinant HDAC1,2,3,6,8 as well as FRET-based binding assay for recombinant HDAC10.
The experiments were performed according to ref. [48]. […] Drug dosing was performed with a D300e Digital Dispenser (Tecan). HDACs (7 ng/mL for HDAC1, 25 ng/mL for HDAC2, 200 ng/mL for HDAC3/Ncor2 complex, 100 ng/mL for HDAC6, 200 ng/mL for HDAC8) and inhibitors were incubated together at room temperature (RT) for 30 min. After the addition of the HDAC-Glo™ I/II reagent, plates were shaken (800 rpm orbital shaker, 30 s), centrifuged (300 g, 1 min), and incubated at RT for 30 min. Luminescence was detected with a CLARIOstar (BMG Labtech) plate reader.

SMILES: O=C(O)CCCCC1CCSS1 (racemic) [(R/S)-LA, (R/S)-lipoic acid]
HDAC enzymatic activity (normalized luminescence) (0.5 M TCEP, log10 M -3.30103, 3 technical replicates): 1.458 and 1.424 and 1.356
HDAC enzymatic activity (normalized luminescence) (0.5 M TCEP, log10 M -3.82945, 3 technical replicates): 2.832 and 2.728 and 2.83
HDAC enzymatic activity (normalized luminescence) (0.5 M TCEP, log10 M -4.35788, 3 technical replicates): 6.139 and 5.789 and 5.799
HDAC enzymatic activity (normalized luminescence) (0.5 M TCEP, log10 M -4.88629, 3 technical replicates): 13.455 and 13.5196 and 13.8559
HDAC enzymatic activity (normalized luminescence) (0.5 M TCEP, log10 M -5.41477, 3 technical replicates): 31.3499 and 32.1006 and 33.4073
HDAC enzymatic activity (normalized luminescence) (0.5 M TCEP, log10 M -5.94309, 3 technical replicates): 55.9078 and 57.6015 and 56.5157
HDAC enzymatic activity (normalized luminescence) (0.5 M TCEP, log10 M -6.47756, 3 technical replicates): 76.0987 and 79.5289 and 82.7102
HDAC enzymatic activity (normalized luminescence) (0.5 M TCEP, log10 M -6.87615, 3 technical replicates): 85.7363 and 87.7513 and 88.064
HDAC enzymatic activity (normalized luminescence) (no TCEP, log10 M -3.30103, 3 technical replicates): 23.0918 and 22.3431 and 22.7816
HDAC enzymatic activity (normalized luminescence) (no TCEP, log10 M -3.82945, 3 technical replicates): 56.1761 and 58.3464 and 57.3647
HDAC enzymatic activity (normalized luminescence) (no TCEP, log10 M -4.35788, 3 technical replicates): 82.4637 and 85.6042 and 82.8934
HDAC enzymatic activity (normalized luminescence) (no TCEP, log10 M -4.88629, 3 technical replicates): 93.4335 and 99.2455 and 95.9681
HDAC enzymatic activity (normalized luminescence) (no TCEP, log10 M -5.41477, 3 technical replicates): 97.1057 and 101.846 and 99.5994
HDAC enzymatic activity (normalized luminescence) (no TCEP, log10 M -5.94309, 3 technical replicates): 97.3023 and 99.1974 and 100.246
HDAC enzymatic activity (normalized luminescence) (no TCEP, log10 M -6.47756, 3 technical replicates): 99.4261 and 102.712 and 105.54
HDAC enzymatic activity (normalized luminescence) (no TCEP, log10 M -6.87615, 3 technical replicates): 96.4036 and 90.044 and 88.9734
EC50: 1.73 µM
HDAC6 relative activity (sheet S2b, log conc -3.30103): 1.144 and 1.081 and 1.088
HDAC6 relative activity (sheet S2b, log conc -3.82945): 2.37 and 2.452 and 2.46
HDAC6 relative activity (sheet S2b, log conc -4.35788): 4.674 and 4.632 and 4.542
HDAC6 relative activity (sheet S2b, log conc -4.88629): 10.1866 and 10.4131 and 10.6467
HDAC6 relative activity (sheet S2b, log conc -5.41477): 23.025 and 23.2631 and 23.7333
HDAC6 relative activity (sheet S2b, log conc -5.94309): 48.9979 and 48.9603 and 49.8705
HDAC6 relative activity (sheet S2b, log conc -6.47756): 72.291 and 73.4771 and 73.4953
HDAC6 relative activity (sheet S2b, log conc -6.87615): 86.8078 and 88.7475 and 90.3905
HDAC6 relative activity (sheet S2d, log conc -3.30103): 1.458 and 1.424 and 1.356
HDAC6 relative activity (sheet S2d, log conc -3.82945): 2.832 and 2.728 and 2.83
HDAC6 relative activity (sheet S2d, log conc -4.35788): 6.139 and 5.789 and 5.799
HDAC6 relative activity (sheet S2d, log conc -4.88629): 13.455 and 13.5196 and 13.8559
HDAC6 relative activity (sheet S2d, log conc -5.41477): 31.3499 and 32.1006 and 33.4073
HDAC6 relative activity (sheet S2d, log conc -5.94309): 55.9078 and 57.6015 and 56.5157
HDAC6 relative activity (sheet S2d, log conc -6.47756): 76.0987 and 79.5289 and 82.7102
HDAC6 relative activity (sheet S2d, log conc -6.87615): 85.7363 and 87.7513 and 88.064

EC50: 0.931 µM
HDAC6 relative activity (sheet S2b, log conc -3.30103): 75.3248 and 75.1005 and 70.3242
HDAC6 relative activity (sheet S2b, log conc -3.82945): 95.4583 and 94.7241 and 92.4168
HDAC6 relative activity (sheet S2b, log conc -4.35788): 101.41 and 101.875 and 100.004
HDAC6 relative activity (sheet S2b, log conc -4.88629): 103.293 and 100.632 and 100.653
HDAC6 relative activity (sheet S2b, log conc -5.41477): 102.294 and 103.492 and 99.8033
HDAC6 relative activity (sheet S2b, log conc -5.94309): 101.321 and 102.657 and 100.612
HDAC6 relative activity (sheet S2b, log conc -6.47756): 107.714 and 104.061 and 103.825
HDAC6 relative activity (sheet S2b, log conc -6.87615): 97.9564 and 94.6265 and 91.4846
SMILES: NC(=O)CCCCC1CCSS1 (racemic) [(R/S)-LM, (R/S)-lipoamide]

Reference: article PMC10272112 (Nature Communications, 2023)
